What is called chromatographic logP is a lipophilicity value derived from retention on a column. A higher chromatographic logP goes with a more lipophilic compound.

The test system of data set [1] is Phytophthora infestans. The data set can be described thus: whole plant or invertebrate. In kind it is in vivo. Particulars: in Solanum lycopersicum, 120 h, read-out: % efficacy.
The subject of a further data set is Uromyces appendiculatus. The data set can be described thus: Example C: in vivo preventive test on Uromyces appendiculatus (bean rust). As to conditions: 500 ppm, preventive spray on bean plants, contamination after 24 hours, grading 11 days after contamination vs control plants. Here is the method: In Vivo Preventive Test on Uromyces appendiculatus (Bean Rust)
(§1) The active ingredients tested are prepared by homogenization in a mixture of acetone/tween/DMSO, and then diluted with water to obtain the desired active material concentration.
Bean plants (“Saxa” variety), sown in starter cups on a 50/50 peat soil-pozzolana substrate and grown at 24° C., are treated at the 2-leaf stage (9 cm height) by spraying with the active ingredient prepared as described above. Plants, used as controls, are treated with the mixture of acetone/tween/DMSO/water not containing the active material.
After 24 hours, the plants are contaminated by spraying the leaves with an aqueous suspension of Uromyces appendiculatus spores (150 000 spores per ml). The spores are collected from infected plants and are suspended in water containing 2.5 ml/l of Tween 80 at 10%. The contaminated bean plants are incubated for 24 hours at 20° C. and at 100% relative humidity, and then for 10 days at 20° C. and at 70-80% relative humidity.
Grading (% of efficacy) is carried out 11 days after the contamination, in comparison with the control plants.
(§2) Under these conditions, good (at least 70%) or total protection is observed at a dose of 500 ppm with the following compounds: […]

The subject of another data set is Puccinia recondita. The data set can be described thus: Example E: in vivo preventive test on Puccinia recondita (brown rust on wheat). As to conditions: 500 ppm, preventive spray on wheat plants, contamination after 24 hours, grading 12 days after contamination vs control plants. The procedure: In Vivo Preventive Test on Puccinia recondita (Brown Rust on Wheat)
as §1
Wheat plants (“Scipion” variety), sown in starter cups on a 50/50 peat soil-pozzolana substrate and grown at 22° C., are treated at the 1-leaf stage (10 cm height) by spraying with the active ingredient prepared as described above. Plants, used as controls, are treated with the mixture of acetone/tween/DMSO/water not containing the active material.
After 24 hours, the plants are contaminated by spraying the leaves with an aqueous suspension of Puccinia recondita spores (100 000 spores per ml). The spores are collected from an infected plant and are suspended in water containing 2.5 ml/l of Tween 80 at 10%. The contaminated wheat plants are incubated for 24 hours at 20° C. and at 100% relative humidity, and then for 10 days at 20° C. and at 70-80% relative humidity.
Grading (% of efficacy) is carried out 12 days after the contamination, in comparison with the control plants.
as §2

The subject of a further data set is Plasmopara viticola. Description: Example I: in vivo preventive test on Plasmopara viticola (grapevine). Particulars: 144 h, 10 ppm of active ingredient, preventive spray on young plants, evaluated 6 days after inoculation, read-out: Eff. %. Here is the method: In Vivo Preventive Test on Plasmopara viticola (Grapevine)
To produce a suitable preparation of active compound, 1 part by weight of active compound is mixed with the stated amounts of solvent and emulsifier, and the concentrate is diluted with water to the desired concentration.
To test for preventive activity, young plants are sprayed with the preparation of active compound at the stated rate of application. After the spray coating has dried on, the plants are inoculated with an aqueous spore suspension of Plasmopara viticola and then remain for 1 day in an incubation cabinet at approximately 20° C. and a relative atmospheric humidity of 100%. The plant is subsequently placed for 4 days in a greenhouse at approximately 21° C. and a relative atmospheric humidity of approximately 90%. The plants are then misted and placed for 1 day in an incubation cabinet.
The test is evaluated 6 days after the inoculation. 0% means an efficacy which corresponds to that of the untreated control, while an efficacy of 100% means that no disease is observed.

The conditions of data set [2]: pH 2.7, LogP, HPLC on reversed phase columns, pH 2.7, 0.1% formic acid in water / acetonitrile gradient.
Another data set deals with Botrytis cinerea. The data set can be described thus: Example B: in vivo preventive test on Botrytis cinerea (grey mould). As to conditions: 500 ppm, preventive spray on gherkin plants, contamination after 24 hours, grading 4 to 5 days after contamination vs control plants. The procedure:
In Vivo Preventive Test on Botrytis Cinerea (Grey Mould)
The active ingredients tested are prepared by homogenization in a mixture of acetone/tween/DMSO and then diluted with water to obtain the desired active material concentration.
Gherkin plants (“Vert petit de Paris” variety), sown in starter cups on a 50/50 peat soil-pozzolana substrate and grown at 24° C., are treated at the Z11 cotyledon stage by spraying with the active ingredient prepared as described above. Plants, used as controls, are treated with the mixture of acetone/tween/DMSO/water not containing the active material.
After 24 hours, the plants are contaminated by spraying the cotyledons with an aqueous suspension of cryopreserved Botrytis cinerea spores (50 000 spores per ml). The spores are suspended in a nutrient solution composed of 10 g/L of PDB, 50 g/L of D-Fructose, 2 g/L of NH4NO3 and 1 g/L of KH2PO4. The contaminated gherkin plants are incubated at 17° C. and at 90% relative humidity.
Grading (% of efficacy) is carried out 4 to 5 days after the contamination, in comparison with the control plants.
as §2

In a further data set the test system is Pyricularia oryzae. Description: whole plant or invertebrate. As to conditions: 144 h, read-out: % efficacy. In kind it is in vivo.
In a further data set the test system is Pyrenophora teres. Description: Example D: in vivo preventive test on Pyrenophora teres (net blotch on barley). Particulars: 500 ppm, preventive spray on barley plants, contamination after 24 hours, grading 14 days after contamination vs control plants. Here is the method: In Vivo Preventive Test on Pyrenophora teres (Net Blotch on Barley)
as §1
Barley plants (“Plaisant” variety), sown in starter cups on a 50/50 peat soil-pozzolana substrate and grown at 22° C., are treated at the 1-leaf stage (10 cm height) by spraying with the active ingredient prepared as described above. Plants, used as controls, are treated with the mixture of acetone/tween/DMSO/water not containing the active material.
After 24 hours, the plants are contaminated by spraying the leaves with an aqueous suspension of Pyrenophora teres spores (12 000 spores per ml). The spores are collected from a 12-day-old culture. The contaminated barley plants are incubated for 48 hours at 20° C. and at 100% relative humidity, and then for 12 days at 20° C. at 70-80% relative humidity.
Grading (% of efficacy) is carried out 14 days after the contamination, in comparison with the control plants.
as §2

Data set [3] concerns Phytophthora infestans. Type of data set: in vivo. Particulars: 100 ppm of active ingredient, preventive spray, inoculation one day after treatment, evaluated 7 days after inoculation.

As for `COc1ccc(CC(=O)Nc2cccc(CON=C(c3ccccc3)c3nc(=O)on3C)n2)cc1` [Example 16], in the data set with Phytophthora infestans [1], the pest or weed control at 500 ppm worked out at 100%. For the same compound, the “% efficacy” value amounted to 81% in the data set with Uromyces appendiculatus and 89% with Puccinia recondita. Moreover, the pest or weed control at 10 ppm with Plasmopara viticola turned out to be 94%. The chromatographic logP in data set [2] amounted to 2.92.

As for `C#CCC(C)(C)OC(=O)Nc1cccc(CO/N=C(/c2ccccc2)c2nc(=O)on2C)n1` [Example 35, 2-methylpent-4-yn-2-yl {6-[({[(Z)-(2-methyl-5-oxo-2,5-dihydro-1,2,4-oxadiazol-3-yl)(phenyl)methylene]amino}oxy)methyl]pyridin-2-yl}carbamate], the pest or weed control at 500 ppm in the data set on Phytophthora infestans [1] came to 100%. Moreover, the “% efficacy” value in the data set with Botrytis cinerea stood at 90%. Also, in the data set with Plasmopara viticola, the pest or weed control at 10 ppm worked out at 100%. Also, the chromatographic logP in data set [2] turned out to be 3.31.

As for `Cc1cccc(C(=NOCc2cccc(NC(=O)COc3ccccc3)n2)c2nc(=O)on2C)c1` [Example 55], the pest or weed control at 500 ppm in the data set on Phytophthora infestans [1] was determined as 100%; in the data set on Pyricularia oryzae, 83%. Besides, the “% efficacy” value in the data set on Botrytis cinerea is listed as 85%. Moreover, the chromatographic logP in [2] turned out to be 3.39.

For `COc1cccc(C(=NOCc2cccc(NC(=O)COc3ccccc3)n2)c2nc(=O)o[nH]2)c1` [Example 45], the pest or weed control at 500 ppm in the data set on Phytophthora infestans [1] is 88%. Moreover, in the data set with Pyrenophora teres, the “% efficacy” value amounted to 71%. Moreover, the chromatographic logP in [2] is 3.17.

Turning to `CCCCCCNc1cccc(CON=C(c2ccccc2)c2nc(=O)on2C)n1` [Example 5], the Eff. % in the data set with Phytophthora infestans [3] amounted to 95%. For the same compound, the pest or weed control at 10 ppm in the data set with Plasmopara viticola stood at 96%. In data set [2], this compound came in with a chromatographic logP of 2.2.

Take `Cn1oc(=O)nc1C(=NOCc1cccc(NC(=O)c2cccc(F)c2)n1)c1ccccc1` [Example 10]: the pest or weed control at 500 ppm in the data set on Phytophthora infestans [1] was found to be 99%; with Pyricularia oryzae, 79%. For the same compound, the “% efficacy” value in the data set with Botrytis cinerea came out at 71%. The same compound returned a chromatographic logP in [2] of 3.11.

The values above are taken from patent US9556158B2, “Fungicidal 3-[(pyridin-2-ylmethoxyimino)(phenyl)methyl]-2-substituted-1,2,4-oxadiazol-5(2H)-one derivatives” (BAYER INTELLECTUAL PROPERTY GMBH, priority 2011, dated 2017).
